# Patent US20210161968A1, “USE OF MICRONEEDLE PATCH TO PROMOTE HAIR GROWTH” (North Carolina State University, priority 2018, published 2021)
# Test system: 7-week-old shaved C57BL/6J mouse model
# Assay: Hair loss therapy (hair regrowth) in shaved mouse model
# Format: in vivo
# Procedure: Animal Studies: C57B/6J mice were used in this work and purchased from Jackson Laboratory (Bar Harbor, Me., United States of America). For in vivo therapy studies, the mice were shaved at postnatal day 50, and treated with an HMN patch loaded with exosomes and/or UK5099 at day 1 and day 5 after hair shave. The patch was pressed firmly for the first 5 seconds to penetrate through the epidermis and then pressed softly for an additional 1 minute to make the patch absorb liquid. The patch base was removed at 4 hours post-insertion into the skin. Topical administration of UK5099 (solvent formulation: ethanol/water/propylene glycol=5/3/2), and subcutaneous injection of exosomes were performed every two days, with the dosage same with that of the corresponding HMN patch. Shaved mice without any treatment were adopted as a control. The clinical agent minoxidil was used via topical administration in a concentration of 3%. The time profile of the hair phenotype transformation was obtained by real-time observation of the hair regrowth in mice. The judgement of the hair follicles in telogen, telogen-anagen transition, and anagen was performed according to a method previously described in the literature. See Oh et al., J. Investig. Dermatol. 2016, 136(1), 34-44. […]
smiles,measurement,setting,value
"N#CC(=Cc1cn(-c2ccccc2)c2ccccc12)C(=O)O [UK5099, 2-cyano-3-(1-phenyl-1H-indol-3-yl)-2-propenoic acid]",time for HFSCs to enter into anagen (pigmentation and hair regrowth),"delivered via HMN patch, two rounds of administration (day 1 and day 5)",about 8 days
same,therapeutic effect reflected by the hair covered area,"topical administration, seven treatments, compared with HMN administration",inferior therapeutic effect
